Measurements taken from ChEMBL document CHEMBL1201862, “PubChem BioAssay data set” (2004).
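Where inhibition never reached the appropriate level, the endpoint shown equals the highest concentration tested. Otherwise, values were interpolated linearly from a five-concentration, 48-hour dose response in 96-well plates. Here, GI50 denotes the concentration required for 50% inhibition of growth.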 Active and inactive are the calls of the source. Cut-off read from the data, not from the text of the source: active = GI50 up to about 1.1 µM and inactive = higher.

Legend:
Experiment in all cases: NCI tumour cell line growth inhibition, 48 h
CAKI-1 = test system: CAKI-1
DLD-1 = test system: DLD-1
786-0 = test system: 786-0
MOLT-4 = test system: MOLT-4
SNB-78 = test system: SNB-78
HOP-92 = test system: HOP-92
OVCAR-3 = test system: OVCAR-3
SR = test system: SR
HT-29 = test system: HT-29
RPMI-8226 = test system: RPMI-8226
RXF 393 = test system: RXF 393
OVCAR-5 = test system: OVCAR-5
A498 = test system: A498
SK-MEL-5 = test system: SK-MEL-5

Measured: GI50

O=c1cccccc1NCCNc1cccccc1=O
inactive: CAKI-1 > 100 µM | DLD-1 > 10 µM | 786-0 > 100 µM | MOLT-4 > 100 µM | SNB-78 > 100 µM | HOP-92 > 100 µM | OVCAR-3 > 100 µM | SR > 100 µM | HT-29 > 100 µM | RPMI-8226 > 100 µM | RXF 393 68.2 µM | OVCAR-5 > 100 µM

Cc1cccc(NC(=O)C(=O)C(C(=O)c2ccc3ccccc3c2)C2OC(=O)c3ccccc32)c1C (centres undefined)
inactive: CAKI-1 11.9 µM | DLD-1 14.8 µM | 786-0 6.15 µM | MOLT-4 3.78 µM | SNB-78 16.1 µM | A498 10.1 µM | HOP-92 11.8 µM | OVCAR-3 12.9 µM | HT-29 28.1 µM | RPMI-8226 6.98 µM | RXF 393 2.39 µM | OVCAR-5 21.7 µM | SK-MEL-5 12.4 µM

O=[As](O)(O)c1cc(/N=N/c2ccc(-c3ccc(/N=N/c4cc([As](=O)(O)O)c(O)cc4O)cc3)cc2)c(O)cc1O
inactive: CAKI-1 > 79.6 µM | DLD-1 > 43 µM | 786-0 > 100 µM | MOLT-4 > 100 µM | SNB-78 > 100 µM | A498 > 56 µM | HOP-92 > 100 µM | OVCAR-3 > 52.8 µM | SR > 100 µM | HT-29 > 95.1 µM | RPMI-8226 > 100 µM | RXF 393 > 100 µM | OVCAR-5 > 69.5 µM | SK-MEL-5 > 88.1 µM

Cc1c(O)c(O)cc[n+]1C1OC(CO)C(O)C1O (centres undefined)
inactive: CAKI-1 > 100 µM | DLD-1 > 100 µM | 786-0 > 100 µM | SNB-78 > 100 µM | A498 > 100 µM | HOP-92 > 100 µM | HT-29 > 100 µM | RPMI-8226 > 100 µM | RXF 393 > 100 µM | OVCAR-5 > 100 µM

Nc1nc(N)c(-c2ccccc2)c(CCC(=O)Nc2ccc(Cl)cc2)n1
inactive: CAKI-1 > 100 µM | DLD-1 > 100 µM | 786-0 > 100 µM | MOLT-4 > 100 µM | SNB-78 > 100 µM | A498 > 100 µM | HOP-92 > 100 µM | OVCAR-3 > 100 µM | SR > 100 µM | HT-29 > 100 µM | RPMI-8226 > 100 µM | OVCAR-5 > 100 µM | SK-MEL-5 > 100 µM

CCOC(=O)NC(=O)c1cn(C2OC(COC(=O)CCCCCCCCC(=O)OCC3OC(n4cc(C(=O)NC(=O)OCC)c(=O)[nH]c4=O)C4OC(C)(C)OC34)C3OC(C)(C)OC32)c(=O)[nH]c1=O (centres undefined)
inactive: CAKI-1 > 100 µM | DLD-1 > 100 µM | 786-0 > 100 µM | MOLT-4 35.6 µM | SNB-78 > 100 µM | A498 > 100 µM | HOP-92 67.1 µM | OVCAR-3 75.9 µM | SR 78.5 µM | HT-29 79.8 µM | RPMI-8226 44 µM | RXF 393 > 100 µM | OVCAR-5 > 100 µM | SK-MEL-5 54.1 µM

CO[C@@]12CC(=O)/C(=C(O)\C=C\c3ccccc3)C(=O)[C@]1(OC)Cc1ccccc1O2
inactive: DLD-1 32.2 µM | 786-0 24.7 µM | MOLT-4 29.7 µM | SNB-78 30.5 µM | A498 33.3 µM | HOP-92 48.6 µM | OVCAR-3 26.2 µM | HT-29 37.5 µM | RXF 393 18.8 µM | OVCAR-5 41.7 µM | SK-MEL-5 36.5 µM

O=C(O)C1C2CCC(O2)C1C(=O)N1CCCCC1 (centres undefined)
inactive: DLD-1 15.6 µM | 786-0 4.16 µM | MOLT-4 5.06 µM | SNB-78 16.7 µM | A498 1.28 µM | HOP-92 2.38 µM | OVCAR-3 1.93 µM | SR 3.68 µM | HT-29 4.07 µM | RPMI-8226 3.26 µM | RXF 393 2.2 µM | OVCAR-5 26.5 µM | SK-MEL-5 13.8 µM

CCOC(=O)NC(=O)c1cn(CCOC(=O)CCCCCCCCC(=O)OCCn2cc(C(=O)NC(=O)OCC)c(=O)[nH]c2=O)c(=O)[nH]c1=O
inactive: CAKI-1 > 100 µM | DLD-1 > 100 µM | 786-0 > 100 µM | MOLT-4 > 100 µM | SNB-78 > 100 µM | A498 > 100 µM | HOP-92 > 100 µM | OVCAR-3 > 100 µM | SR > 100 µM | HT-29 > 100 µM | RPMI-8226 > 100 µM | RXF 393 > 100 µM | OVCAR-5 > 100 µM | SK-MEL-5 > 100 µM
